IC50 data for 40 molecules are collected here from ChEMBL document CHEMBL5113403, “Design, synthesis, and biological evaluation of novel pyrazolo [3,4-d]pyrimidine derivatives as potent PLK4 inhibitors for the treatment of TRIM37-amplified breast cancer” (Eur J Med Chem, 2022).

The target in test [1] is T1, Serine/threonine-protein kinase PLK4 (Homo sapiens, UniProt O00444).
T1 sequence (O00444 whole entry): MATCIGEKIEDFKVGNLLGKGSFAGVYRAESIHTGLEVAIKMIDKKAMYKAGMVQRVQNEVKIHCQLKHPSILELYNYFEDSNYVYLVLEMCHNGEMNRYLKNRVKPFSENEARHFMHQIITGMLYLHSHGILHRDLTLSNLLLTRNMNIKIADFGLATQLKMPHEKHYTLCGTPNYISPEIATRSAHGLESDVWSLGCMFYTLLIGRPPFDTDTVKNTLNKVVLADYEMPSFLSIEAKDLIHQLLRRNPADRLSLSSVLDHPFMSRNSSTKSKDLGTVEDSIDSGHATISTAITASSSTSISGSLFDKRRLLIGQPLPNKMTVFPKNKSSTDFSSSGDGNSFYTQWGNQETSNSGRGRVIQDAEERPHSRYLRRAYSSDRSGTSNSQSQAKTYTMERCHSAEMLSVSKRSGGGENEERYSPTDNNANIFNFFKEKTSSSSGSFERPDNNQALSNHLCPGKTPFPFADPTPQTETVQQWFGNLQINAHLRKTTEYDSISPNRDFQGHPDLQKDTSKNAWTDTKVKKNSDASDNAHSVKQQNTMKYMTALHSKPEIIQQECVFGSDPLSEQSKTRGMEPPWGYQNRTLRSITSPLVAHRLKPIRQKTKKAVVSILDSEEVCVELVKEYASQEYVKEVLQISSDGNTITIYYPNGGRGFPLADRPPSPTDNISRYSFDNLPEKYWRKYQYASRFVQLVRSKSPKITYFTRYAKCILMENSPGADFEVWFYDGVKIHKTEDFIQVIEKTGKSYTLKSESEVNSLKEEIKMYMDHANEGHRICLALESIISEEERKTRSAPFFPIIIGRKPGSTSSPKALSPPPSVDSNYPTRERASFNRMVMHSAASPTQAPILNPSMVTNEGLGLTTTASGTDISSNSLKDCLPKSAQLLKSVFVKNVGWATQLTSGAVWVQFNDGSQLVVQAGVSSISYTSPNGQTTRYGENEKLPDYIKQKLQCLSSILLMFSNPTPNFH
The test can be described thus: Inhibition of recombinant human PLK4 incubated for 60 mins by Lanthascreen Eu kinase binding assay.

The target of test [2] is Serine/threonine-protein kinase PAK 4 (Homo sapiens, UniProt O96013). The test can be described thus: Inhibition of PAK4 (unknown origin) incubated for 60 mins by time-resolved HTRF assay.
Sequence of Serine/threonine-protein kinase PAK 4 (O96013 whole entry): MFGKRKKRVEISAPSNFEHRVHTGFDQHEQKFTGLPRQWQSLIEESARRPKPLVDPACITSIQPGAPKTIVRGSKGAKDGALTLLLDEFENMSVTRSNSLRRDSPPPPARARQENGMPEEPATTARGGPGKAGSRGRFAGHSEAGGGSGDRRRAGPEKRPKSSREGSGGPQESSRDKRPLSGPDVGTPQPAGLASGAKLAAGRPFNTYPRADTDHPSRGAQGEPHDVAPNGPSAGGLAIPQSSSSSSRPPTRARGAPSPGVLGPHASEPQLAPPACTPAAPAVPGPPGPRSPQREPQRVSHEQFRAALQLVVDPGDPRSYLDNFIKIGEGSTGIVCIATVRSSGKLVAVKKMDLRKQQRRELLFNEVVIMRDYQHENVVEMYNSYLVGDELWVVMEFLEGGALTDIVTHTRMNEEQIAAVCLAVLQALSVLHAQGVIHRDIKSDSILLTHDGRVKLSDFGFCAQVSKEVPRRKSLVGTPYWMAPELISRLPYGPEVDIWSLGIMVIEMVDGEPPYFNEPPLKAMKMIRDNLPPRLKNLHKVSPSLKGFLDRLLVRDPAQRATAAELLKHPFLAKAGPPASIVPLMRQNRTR
The test system of test [3] is BT-474. The test can be described thus: Antiproliferative activity against human BT-474 cells assessed as cell growth inhibition incubated for 5 days by MTT assay. The format is functional, cell-based. To be noted: BT-474, 120 h.
In test [4] the test system is MCF7. The test can be described thus: Antiproliferative activity against human MCF7 cells assessed as cell growth inhibition incubated for 5 days by MTT assay. The class given is functional, cell-based. To be noted: MCF7, 120 h.
Test [5] concerns MDA-MB-231. The test can be described thus: Antiproliferative activity against human MDA-MB-231 cells assessed as cell growth inhibition incubated for 5 days by MTT assay. The class given is functional, cell-based. To be noted: MDA-MB-231, 120 h.

Molecules are shown by their SMILES.

Consider `Cc1cc(Nc2nc(NC3CCNCC3)nc3[nH]ncc23)n[nH]1`, for which the half-maximal inhibitory concentration (IC50) in test [1] was 484 nM; in test [2], 273 nM.

In the case of `Cc1cc(Nc2nc(NC3CCNC3)nc3[nH]ncc23)n[nH]1` (configuration not stated), the values for the IC50 in test [1] and in test [2] were 454 nM and 1050 nM, respectively.

As for `Cc1cc(Nc2nc(NCc3ccc(C#N)cc3)nc3[nH]ncc23)n[nH]1`, the IC50 in test [1] came to 10.5 nM; in test [3], 12.1 µM; in test [4], 6060 nM; in test [5] it was 1.36 µM.

As to `Cc1cc(Nc2nc(NCc3cccc(F)c3)nc3[nH]ncc23)n[nH]1`, the IC50 was found to be 14.6 nM in test [1] and 458 nM in test [2].

On to `Cc1cc(Nc2nc(NCc3ccccc3Cl)nc3[nH]ncc23)n[nH]1`, for which the IC50 in test [1] amounted to 0.7 nM; in test [3], 7.16 µM; in test [4], 4130 nM; in test [2] it was 668 nM; in test [5] it was 4.21 µM.

With `Cc1cc(Nc2nc(NCc3ccc(F)cc3F)nc3c2cnn3C(C)C)n[nH]1`, the half-maximal inhibitory concentration (IC50) in test [1] is 1.1 nM; in test [3], 17.3 µM; in test [4], 4320 nM; in test [5], 5.35 µM.

With `Cc1cc(Nc2nc(NCc3c(F)cc(F)cc3F)nc3[nH]ncc23)n[nH]1`, in test [1], the IC50 worked out at 78.5 nM.

Turning to `COc1ccc(CNc2nc(Nc3cc(C)[nH]n3)c3cn[nH]c3n2)cc1`, the IC50 was determined as 6.5 nM in test [1], 8.23 µM in test [3], 3320 nM in test [4] and 1.32 µM in test [5].

With `CC(C)(C)c1cc(Nc2nc(NCc3ccc(F)cc3F)nc3c2cnn3C2CCOCC2)n[nH]1`, the IC50 in test [1] stood at 726 nM.

As for `Cc1cc(Nc2nc(NCc3ccc(F)cc3)nc3[nH]ncc23)n[nH]1`, the IC50 turned out to be 0.8 nM in test [1]; 8.75 µM in test [3]; 970 nM in test [4]; 395 nM in test [2]; 8.41 µM in test [5].

Consider `Cc1cc(Nc2nc(NCc3ccc(F)cc3F)nc3[nH]ncc23)n[nH]1`, for which the half-maximal inhibitory concentration (IC50) in test [1] came to 0.1 nM; in test [3], 3.22 µM; in test [4], 670 nM; in test [2], 96.1 nM; in test [5], 2.67 µM.

For `Cc1cc(Nc2nc(NCc3ccc(Cl)cc3)nc3c2cnn3CC(F)(F)F)n[nH]1`, the 50% inhibitory concentration (IC50) in test [1] came to 118 nM.

In the case of `Fc1ccc(CNc2nc(Nc3cc(C4CC4)[nH]n3)c3cnn(C4CCOCC4)c3n2)c(F)c1`, the IC50 in test [1] is 1.8 nM; in test [3] it was 7.24 µM; in test [4], 2480 nM; in test [5], 2.56 µM.

Turning to `Fc1ccc(CNc2nc(Nc3cc(-c4ccccc4)[nH]n3)c3cnn(C4CCOCC4)c3n2)c(F)c1`, the IC50 in test [1] was determined as 969 nM.

`Cc1cc(Nc2nc(NCc3cccc(Br)c3)nc3[nH]ncc23)n[nH]1`: the results for the half-inhibitory concentration (IC50) in test [1] and in test [2] were 23.3 nM and 4340 nM, respectively.

For `Cc1cc(Nc2nc(N3CCNCC3)nc3[nH]ncc23)n[nH]1`, the concentration for half-maximal inhibition (IC50) amounted to 533 nM in test [1] and 1500 nM in test [2].

Turning to `Cc1cc(Nc2nc(NCc3ccc(F)cc3F)nc3c2cnn3CC(C)(C)O)n[nH]1`, the half-inhibitory concentration (IC50) in test [1] is 2.7 nM; in test [3], 19.4 µM; in test [4], 160 nM; in test [2], 655 nM; in test [5], 2.51 µM.

On to `CCc1cc(Nc2nc(NCc3ccc(F)cc3F)nc3c2cnn3C2CCOCC2)n[nH]1`, for which the 50% inhibitory concentration (IC50) was found to be 0.7 nM in test [1], 3.06 µM in test [3], 1790 nM in test [4] and 2.79 µM in test [5].

Turning to `Cc1cc(Nc2nc(NCc3ccc(Cl)cc3)nc3c2cnn3C(C)C)n[nH]1`, the IC50 in test [1] amounted to 3.7 nM; in test [3], 13 µM; in test [4] it was 2040 nM; in test [5] it was 4.86 µM.

Consider `Cc1cc(Nc2nc(NCc3ccc(Cl)cc3)nc3c2cnn3-c2ccc(F)cc2)n[nH]1`, for which the half-inhibitory concentration (IC50) in test [1] came out at 241 nM.

On to `Cc1cc(Nc2nc(NCc3ccccc3)nc3[nH]ncc23)n[nH]1`, for which the IC50 in test [1] came to 21.2 nM; in test [2], 1960 nM.

For `Cc1cc(Nc2nc(NCc3ccc(Br)cc3)nc3[nH]ncc23)n[nH]1`, the half-maximal inhibitory concentration (IC50) in test [1] is 5.6 nM; in test [3], 4.11 µM; in test [4], 5340 nM; in test [2], 1320 nM; in test [5], 1.86 µM.

As for `Cc1cc(Nc2nc(NCc3ccc(Cl)cc3)nc3c2cnn3C2CCNCC2)n[nH]1`, the concentration for half-maximal inhibition (IC50) stood at 7 nM in test [1], 2.35 µM in test [3], 790 nM in test [4] and 3.22 µM in test [5].

Consider `Fc1ccc(CNc2nc(Nc3n[nH]c4ccccc34)c3cnn(C4CCOCC4)c3n2)c(F)c1`, for which, in test [1], the IC50 is 536 nM.

`Cc1cc(Nc2nc(NCc3ccc(F)c(F)c3)nc3[nH]ncc23)n[nH]1`: the IC50 in test [1] is 22.2 nM.

For the molecule `Fc1ccc(CNc2nc(Nc3n[nH]c4ccc(Cl)cc34)c3cnn(C4CCOCC4)c3n2)c(F)c1`, the IC50 in test [1] was 3180 nM.

In the case of `Cc1cc(Nc2nc(NCc3ccc(F)cc3F)nc3c2cnn3C2CCNCC2)n[nH]1`, the IC50 in test [1] came to 0.7 nM; in test [3] it was 2.97 µM; in test [4], 410 nM; in test [2], 231 nM; in test [5], 1.08 µM.

For the molecule `Cc1cc(Nc2nc(NCc3ccc(Cl)cc3)nc3[nH]ncc23)n[nH]1`, the IC50 in test [1] was determined as 0.3 nM; in test [3], 11.7 µM; in test [4], 860 nM; in test [2], 515 nM; in test [5] it was 7.5 µM.

For `Cc1cnc(Nc2nc(NCc3ccc(F)cc3F)nc3c2cnn3C2CCOCC2)s1`, the IC50 in test [1] was found to be 20.7 nM.

As to `Cc1cc(Nc2nc(NCc3ccc(Cl)cc3)nc3c2cnn3CC(C)(C)O)n[nH]1`, the IC50 in test [1] came to 3.8 nM; in test [3], 16.2 µM; in test [4], 1940 nM; in test [5], 3.98 µM.

On to `Cc1cc(Nc2nc(Nc3ccccc3)nc3[nH]ncc23)n[nH]1`, for which the results for the half-inhibitory concentration (IC50) in test [1] and in test [2] were 206 nM and 5900 nM, respectively.

In the case of `Cc1cc(Nc2nc(NCc3ccc(Cl)cc3)nc3c2cnn3C2CCOCC2)n[nH]1`, the IC50 amounted to 4 nM in test [1], 18.3 µM in test [3], 1550 nM in test [4] and 9.42 µM in test [5].

With `Cc1cc(Nc2nc(NCc3cccc(Cl)c3)nc3[nH]ncc23)n[nH]1`, the IC50 in test [1] came to 5.5 nM; in test [3] it was 12.8 µM; in test [4], 5620 nM; in test [2] it was 611 nM; in test [5] it was 6.86 µM.

Take `Fc1ccc(-c2cc(Nc3nc(NCc4ccc(F)cc4F)nc4c3cnn4C3CCOCC3)n[nH]2)cc1`: in test [1], the concentration for half-maximal inhibition (IC50) was 1290 nM.

Consider `Cc1cc(Nc2nc(Cl)nc3[nH]ncc23)n[nH]1`, for which the half-maximal inhibitory concentration (IC50) in test [1] stood at 489 nM; in test [2], 5940 nM.

On to `Cc1cc(Nc2nc(NCc3ccc(F)cc3F)nc3c2cnn3C)n[nH]1`, for which the IC50 in test [1] is 17.5 nM.

For `Cc1cc(Nc2nc(NCc3ccc(Cl)cc3)nc3c2cnn3C)n[nH]1`, the IC50 in test [1] worked out at 20.2 nM.

For the molecule `COc1c(Nc2cc(C)[nH]n2)nc(Sc2ccc(S(=O)(=O)Cc3cccc([N+](=O)[O-])c3F)cc2F)nc1N1CCOCC1`, the figures for the half-maximal inhibitory concentration (IC50) in test [3], in test [4] and in test [5] were 10.5 µM, 2270 nM and 8.69 µM, respectively.

`Cc1cc(Nc2nc(NCc3ccc(Cl)cc3)nc3c2cnn3C2CCCCC2)n[nH]1`: the IC50 in test [1] stood at 47.9 nM.

`Cc1cc(Nc2nc(NCc3ccc(F)cc3F)nc3c2cnn3C2CCCCC2)n[nH]1`: the IC50 in test [1] turned out to be 7.9 nM; in test [3] it was 6.23 µM; in test [4], 810 nM; in test [5], 2.96 µM.
